Patent US9180156B2, “Composition for controlling increase in blood glucose” (priority 2008, dated 2015)

Columns and labels:
U937 cells = conditions: cited from earlier work
[1] = Intraperitoneal glucose tolerance test (IPGTT) in rats; type: in vivo, rat; conditions: catechin 10 mg/kg i.v. 30 min before glucose 2.0 g/kg i.p.; 12-h fasted rats (FIG. 2)
Experimental: Sprague-Dawley rats were provided by Hyochang Science Co. (Seoul, Korea). After a 12-h fast, rats were anesthetized using pentobarbital sodium (40 mg/kg, i.p.; Nembutal, 50 mg/ml, Hanlim Pharmaceutical Co., Seoul, Korea) and then injected with one of the epicatechins: EGCG, EGC, ECG, and EC (each 10 mg/kg in 300 μl PBS, i.v.). EC was dissolved in a minute amount of DMSO in advance before addition of PBS. In another experiment, rats were randomly divided into 3 groups: control, GTE and GTE-GC. The rats in the GTE group were injected with natural GTE (100 mg/kg in 300 μl PBS, i.v.; 10 mg/kg as EGCG) through the tail vein, while the control rats were injected with only 300 μl PBS and rats in the GTE-GC group were given an equal amount of GC-deficient GTE (100 mg/kg in 300 μl PBS, i.v.; 2.6 mg/kg as EGCG). Thirty minutes after the injection, glucose (2.0 g/kg in 600 μl distilled water, i.p.) was injected. For OGTT, the rats were ingested with 1-ml distilled water only (control), or 1-ml distilled water containing one of natural GTE (900 mg/kg), GC-deficient GTE (900 mg/kg), EGCG (90 mg/kg), natural GTE plus PEG (110 mg/100 mg EGCG) or PEG alone. Immediately after the ingestion, each rat was orally given 1-ml distilled water containing glucose (2 g/kg). For the assay of blood glucose levels, blood was drawn from the tail vein at the indicated times. All the experiments were approved by the Keimyung University institutional ethics committee, Daegu, Korea for supervising animal research.

[2] = target: T1, glucose transporter type 1 (Homo sapiens, UniProt P11166); conditions: red blood cells; read-out: concentration competing with glucose such that the reaction rate was half its maximal value; cited from earlier work
T1 construct: glucose transporter type 1 in red blood cells; host or cells: red blood cells (erythrocytes)
T1 sequence (P11166 1-492): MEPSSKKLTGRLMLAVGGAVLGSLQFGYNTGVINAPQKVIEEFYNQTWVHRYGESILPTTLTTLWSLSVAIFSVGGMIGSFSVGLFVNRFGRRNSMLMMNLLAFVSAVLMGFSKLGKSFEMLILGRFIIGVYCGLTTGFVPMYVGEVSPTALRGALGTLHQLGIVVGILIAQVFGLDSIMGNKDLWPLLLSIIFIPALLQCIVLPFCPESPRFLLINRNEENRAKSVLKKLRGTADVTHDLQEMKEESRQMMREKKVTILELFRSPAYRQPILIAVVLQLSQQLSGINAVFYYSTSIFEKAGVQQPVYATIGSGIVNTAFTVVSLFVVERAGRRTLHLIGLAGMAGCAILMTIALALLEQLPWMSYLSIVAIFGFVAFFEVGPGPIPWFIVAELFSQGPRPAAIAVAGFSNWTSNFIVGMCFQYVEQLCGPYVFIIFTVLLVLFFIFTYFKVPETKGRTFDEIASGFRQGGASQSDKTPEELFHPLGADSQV

OGTT in rats = type: in vivo, rat; conditions: GC-deficient GTE 900 mg/kg or EGCG 90 mg/kg oral immediately before oral glucose; rats (FIG. 6D)
[3] = Insulin tolerance test (ITT) in normal rats; type: in vivo, rat
Experimental: Kir6.2 knock-out (k/o) mice were kindly provided by Prof. Susumu Seino at Kobe University in Japan. Following a 4-h fast, Kir6.2 k/o mice or normal rats were intravenously injected with PBS (100 μl for mouse, 300 μl for rat) only, or PBS containing EGCG (10 mg/kg), natural GTE (100 mg/kg) or GC-deficient GTE (100 mg/kg). Thirty minutes after the injection, the mice and rats were injected intraperitoneally with normal saline (300 μl for mouse, 600 μl for rat) containing insulin (1 IU/kg; INSULIN […], Ind.). Blood samplings were done through the tail vein at the indicated times.

[4] = Insulin tolerance test (ITT) in Kir6.2 k/o mice; type: in vivo, mouse
Experimental: Kir6.2 knock-out (k/o) mice were kindly provided by Prof. Susumu Seino at Kobe University in Japan. Following a 4-h fast, Kir6.2 k/o mice or normal rats were intravenously injected with PBS (100 μl for mouse, 300 μl for rat) only, or PBS containing EGCG (10 mg/kg), natural GTE (100 mg/kg) or GC-deficient GTE (100 mg/kg). Thirty minutes after the injection, the mice and rats were injected intraperitoneally with normal saline (300 μl for mouse, 600 μl for rat) containing insulin (1 IU/kg; INSULIN LISPRO, Eli Lilly, Ind.). Blood samplings were done through the tail vein at the indicated times.

[5] = test system: differentiated L6 myoblasts; experiment: Deoxyglucose uptake assay, L6; type: cell-based, rat; conditions: EGCG 0.1, 1.0, 10 μM; with or without 100 nM insulin (FIG. 3A)
Experimental: (§1) Rat L6 myoblasts were cultured in low-glucose DMEM with 10% (v/v) FBS until they reached 80% confluency. To induce differentiation, cells were further cultured in DMEM (24.9 mM glucose) containing 2% FBS for 7 days. Cell viability was assessed by the trypan blue viability test. Myogenic differentiation to myotube status was evaluated both morphologically and biochemically. Mouse 3T3-L1 preadipocytes were grown to confluence at 37° C. in 35-mm culture dishes in DMEM containing 10% FCS with no added biotin or pantothenate in incubators equilibrated with 5% CO2. […] Cell differentiation was evaluated by the Oil red-0 staining. […]
(§2) Briefly, after serum starvation for 30 min, the cells were washed with Krebs-Ringer phosphate-HEPES buffer [KRPH buffer: 10 mM phosphate buffer, pH 7.4; 1 mM MgSO4, 1 mM CaCl2, 136 mM NaCl, 4.7 mM KCl, and 10 mM HEPES, pH 7.6] and then incubated with or without 100 nM insulin for 20 min in KRPH buffer that contained EGCG (0, 0.1, 1.0 or 10 μM). Glucose transport was determined by the addition of 2-deoxy-[^3H] glucose (0.1 mM, 0.5 μCi/ml; PerkinElmer Life and Analytical Science, Waltham, Mass.). […] The cells were then lysed in PBS containing 0.2 M NaOH, and glucose uptake was assessed by scintillation counting.

HepG2 hepatocytes = experiment: Deoxyglucose uptake assay, HepG2; type: cell-based, human; conditions: EGCG 0.1, 1.0, 10 μM; with or without 100 nM insulin (FIG. 3B)
Experimental: as §1, §2

[6] = test system: differentiated 3T3-L1 adipocytes; experiment: Deoxyglucose uptake assay, 3T3-L1; type: cell-based, mouse; conditions: EGCG 0.1, 1.0, 10 μM; with or without 100 nM insulin (FIG. 3C)
Experimental: as §1, §2

INS-1 beta cells = experiment: Deoxyglucose uptake assay, INS-1; type: cell-based, rat; conditions: EGCG 0.1, 1.0, 10 μM; with or without 100 nM insulin (FIG. 3D)
Experimental: as §1, §2

protein kinase B (PKB) [7] = experiment: Western blot of PKB phosphorylation, L6; type: cell-based, rat; conditions: up to 10 μM EGCG; with or without 100 nM insulin (FIG. 4A)
Experimental: (§3) Rat L6 myoblasts were cultured in low-glucose DMEM with 10% (v/v) FBS until they reached 80% confluency. To induce differentiation, cells were further cultured in DMEM (24.9 mM glucose) containing 2% FBS for 7 days. Cell viability was assessed by the trypan blue viability test. Myogenic differentiation to myotube status was evaluated both morphologically and biochemically. Mouse 3T3-L1 preadipocytes were grown to confluence at 37° C. in 35-mm culture dishes in DMEM containing 10% FCS with no added biotin or pantothenate in incubators equilibrated with 5% CO2. At two days post-confluence (day 0), differentiation was induced with methylisobutylxanthine (0.5 mM), dexamethasone (0.5 μM) and insulin (5 μg/ml) in DMEM containing 10% FBS. On day 2, methylisobutylxanthine and dexamethasone were removed and insulin treatment was continued for 2 additional days. On day 4 and thereafter, DMEM (without insulin supplementation) plus 10% FBS was replaced every 2 days. Cells (2×10^6 cells/dish) were used for experiments on day 8. Cell differentiation was evaluated by the Oil red-0 staining. Human hepatocellular carcinoma HepG2 cell line was maintained in DMEM containing 10% FBS at 37° C. […]

protein kinase B (PKB) [8] = experiment: Western blot of PKB phosphorylation, HepG2; type: cell-based, human; conditions: up to 10 μM EGCG; with or without 100 nM insulin (FIG. 4B)
Experimental: as §3

protein kinase B (PKB) [9] = experiment: Western blot of PKB phosphorylation, 3T3-L1; type: cell-based, mouse; conditions: up to 10 μM EGCG; with or without 100 nM insulin (FIG. 4C)
Experimental: as §3

protein kinase B (PKB) [10] = experiment: Western blot of PKB phosphorylation, INS-1; type: cell-based, rat; conditions: up to 10 μM EGCG; with or without 100 nM insulin (FIG. 4D)
[11] = 10 mg/kg i.v.; rats; cited from earlier work
[12] = relatively long-term intraperitoneal application; rats; cited from earlier work

For `O=c1c(O)c(-c2cc(O)c(O)c(O)c2)oc2cc(O)cc(O)c12` [myricetin], the “concentration that inhibits cellular glucose uptake” value (U937 cells) is given as “around 10 μM”.
In the case of `Oc1cc(O)c2c(c1)O[C@H](c1cc(O)c(O)c(O)c1)[C@H](O)C2` [EGC, epigallocatechin], the “blood glucose levels 30 min after glucose loading vs control” value (shortened to “blood glucose levels 30 min … vs control”) [1] is reported as “no effects”.
In the case of `O=C(O[C@@H]1Cc2c(O)cc(O)cc2O[C@@H]1c1ccc(O)c(O)c1)c1cc(O)c(O)c(O)c1` [ECG, epicatechin-3-gallate], the “blood glucose levels 30 min … vs control” value [1] is given as “more elevated” and the IC50 [2] is given as 100 nM.
In the case of Epigallocatechin-3-gallate [EGCG], the “blood glucose levels 30 min … vs control” value [1] is reported as “more elevated”, the “inhibition of glucose absorption compared with the GTE-treated group” value (OGTT in rats) is reported as “less efficiently” and the “rate of blood glucose disappearance when treated with insulin” value ([3]; EGCG 10 mg/kg i.v. 30 min before insulin 1 IU/kg i.p., rats, P<0.01 (FIG. 5C)) is reported as “delayed mildly but significantly”. The “blood glucose levels 30 min after injection” value ([3]; EGCG 10 mg/kg i.v., 4-h fasted normal rats, P<0.01 (FIG. 5A)) was “significant elevation”, the “rate of blood glucose disappearance when treated with insulin” value ([4]; EGCG 10 mg/kg i.v. 30 min before insulin 1 IU/kg i.p., Kir6.2 k/o mice, P<0.01 (FIG. 5D)) was “delayed mildly but significantly” and the “blood glucose levels 30 min after injection” value ([4]; EGCG 10 mg/kg i.v., 4-h fasted Kir6.2 k/o mice, P<0.01 (FIG. 5B)) was “significant elevation”. The “basal and insulin-stimulated 2-deoxy-[3H]-glucose uptake” value [5] was “decreased by EGCG dose-dependently”, the “basal and insulin-stimulated 2-deoxy-[3H]-glucose uptake” value (HepG2 hepatocytes) was “decreased by EGCG dose-dependently” and the “basal and insulin-stimulated 2-deoxy-[3H]-glucose uptake” value [6] was “decreased by EGCG dose-dependently”. The “basal and insulin-stimulated 2-deoxy-[3H]-glucose uptake” value (INS-1 beta cells) was “decreased by EGCG dose-dependently”, the “basal and insulin-regulated expression of phospho-PKB” value (protein kinase B (PKB) [7]) was “did not alter” and the “basal and insulin-regulated expression of phospho-PKB” value (protein kinase B (PKB) [8]) was “did not alter”. For the same molecule, the “basal and insulin-regulated expression of phospho-PKB” value (protein kinase B (PKB) [9]) was “did not alter”, the “basal and insulin-regulated expression of phospho-PKB” value (protein kinase B (PKB) [10]) was “did not alter” and the IC50 [2] was 1000 nM. The “blood concentration at 30 min after injection” value [11] was “around 1 μM”, the “effect on body weight” value [12] was “weight loss” and the “effect on the sexual organs” value [12] was “significant deterioration in the sexual organs”.
For `O=c1c(O)c(-c2ccc(O)c(O)c2)oc2cc(O)cc(O)c12` [quercetin], the “concentration that inhibits cellular glucose uptake” value (U937 cells) is listed as “around 10 μM”.
